Experimental data published in patent US20090305995A1, “AGONISTS AND ANTAGONISTS OF THE SOMATOSTATIN RECEPTOR” (Novartis AG, priority 2004, published 2009).
≈ marks a conversion by molar mass, not a printed value. Read-outs that look alike come from different tables or passages of the source.

Legend:
Type in all cases: physicochemical
[1] = high throughput permeability (HT-Permeability, log Pe); details: PAMPA, Pe in cm/s
[2] = high throughput solubility (HT-Solubility); details: for water solubility (in words): see FIG. 10
[3] = HT-logP o/w, high throughput assay based on artificial liquid membrane permeability; details: octanol/water; for logP: read-out: HT LogP ohw
Excerpt: To be absorbed and transported by passive diffusion, drugs must be sufficiently lipophilic to penetrate the lipid cores of membranes, but not too lipophilic that they get retained and accumulated there. The lipophilictity of a compound is expressed by the octanol/water partition coefficient or distribution coefficient. A first approximation of substance polarity can either be given by computer assisted calculations giving Clog P values or by measurement of the partition coefficients in high-throughput assays (HT-log P o/w) (Faller et al., 2004; Wohnsland et al., 2001).
Octanol/water partition coefficients are measured in a high throughput assay based on artificial liquid membrane permeability. […] Still many approaches to calculate log P values are limited due to a lack of parameterization of certain fragments and fail with increasing molecular weight which implicates higher structural complexity. Similar problems and failures are observed in chromatographic determinations of log P: Peptides might undergo structural changes driven by interactions with the stationary phase. Decisive interactions between the stationary phase and the defolded analytes are therefore also based on the linear peptide sequence. For this reason measured HT-log P o/w values based on chromatographic assays employing stationary phases may lead to erroneous results.

[4] = pH 4, pH 4.0, read-out: HT-Permeability logPe pH 4.0 (converted)
[5] = pH 1, pH 1.0, read-out: HT-Solubility pH 1.0
[6] = pH 6.8, pH 6.8, read-out: HT-Solubility pH 6.8
[7] = pH 8, pH 8.0, read-out: HT-Permeability logPe pH 8.0 (converted)
[8] = pH 6.8, pH 6.8, read-out: HT-Permeability logPe pH 6.8 (converted)

SMILES	Papp [1, 4]	solubility [2, 5]	solubility [2, 6]	logP [3]	Papp [1, 7]	Papp [1, 8]	water solubility (in words) [2]	HT-Solubility pH 1.0 ([2]; pH 1.0)	HT-Solubility pH 6.8 ([2]; pH 6.8)	HT LogP ohw [3]
CCN(CC)C(=O)C[C@@H](NC(=O)C[C@H](CCCCN)NC(=O)[C@@H](Cc1c[nH]c2ccccc12)NC(=O)C[C@H](Cc1ccccc1)NC(=O)CCc1ccccc1)C(C)C [Compound 24, Dihydrocinnemoyl-(S)-β^3-HPhe-(R)-Trp-(S)-β^3-HLys-(R)-β^3-Leu-diethyl-amide]	0.1 ×10⁻⁶ cm/s	16.2 µg/mL (≈ 20 µM)	16.2 µg/mL (≈ 20 µM)	4.1	–	–	–	–	–	–
C[C@H]1OC(=O)C[C@H]1NC(=O)C[C@H](CCCCN)NC(=O)[C@@H](Cc1c[nH]c2ccccc12)NC(=O)C[C@@H](N)Cc1ccccc1 [Compound 28, (S)-β^3-HPhe-(R)-Trp-(S)-β^3-HLys-(R)-4-amino-(R)-5-methyl-dihydro-furan-2-one]	–	60.5 µg/mL (≈ 100 µM)	60.5 µg/mL (≈ 100 µM)	3.5	3.16 ×10⁻⁶ cm/s	–	–	–	–	–
CC(=O)N[C@H](CC(=O)N[C@H](Cc1c[nH]c2ccccc12)C(=O)N[C@@H](CCCCN)CC(=O)NC1CCCC1)Cc1ccccc1 [Compound 31, Ac—(S)-β^3-HPhe-(R)-Trp-(S)-β^3-HLys-cyclopentyl-amide]	2.51 ×10⁻⁶ cm/s	123 µg/mL (≈ 200 µM)	123 µg/mL (≈ 200 µM)	2.8	1 ×10⁻⁶ cm/s	2 ×10⁻⁶ cm/s	–	–	–	–
NCCCC[C@@H](CC(=O)NC1CCCC1)NC(=O)[C@@H](Cc1c[nH]c2ccccc12)NC(=O)C[C@H](Cc1ccccc1)NC(=O)C12CC3CC(CC(C3)C1)C2 [Compound 34, Adamantoyl-(S)-β^3-HPhe-(R)-Trp-(S)-β^3-HLys-cyclopentyl-amide]	5.01 ×10⁻⁶ cm/s	147 µg/mL (≈ 200 µM)	73.7 µg/mL (≈ 100 µM)	5.2	1.26 ×10⁻⁶ cm/s	6.31 ×10⁻⁶ cm/s	–	–	–	–
CC(=O)N[C@H](CC(=O)N(C)[C@H](Cc1cn(C)c2ccccc12)C(=O)N[C@@H](CCCCN)CC(=O)N[C@@H]1CC(=O)O[C@@H]1C)Cc1ccccc1 [Compound 37, Ac—(S)-β^3-HPhe-(R)—N-Me-1-Me-Trp-(S)-β^3-HLys-(R)-4-amino-(R)-5-methyl-dihydro-furan-2-one]	6.31 ×10⁻⁶ cm/s	135 µg/mL (≈ 200 µM)	67.5 µg/mL (≈ 100 µM)	2.4	–	5.01 ×10⁻⁶ cm/s	–	–	–	–
CN[C@H](CC(=O)N[C@H](Cc1c[nH]c2ccccc12)C(=O)N[C@@H](CCCCN)CC(=O)N[C@@H]1CC(=O)O[C@@H]1C)Cc1ccccc1 [Compound 38, N-Me-(S)-β^3-HPhe-(R)-Trp-(S)-β^3-HLys-(R)-4-amino-(R)-5-methyl-dihydro-furan-2-one]	0.1 ×10⁻⁶ cm/s	124 µg/mL (≈ 200 µM)	30.9 µg/mL (≈ 49.9 µM)	3.2	–	–	–	–	–	–
CC(=O)N(C)[C@H](CC(=O)N[C@H](Cc1c[nH]c2ccccc12)C(=O)N[C@@H](CCCCN)CC(=O)N[C@@H]1CC(=O)O[C@@H]1C)Cc1ccccc1 [Compound 39, Ac—N-Me-(S)-β^3-HPhe-(R)-Trp-(S)-β^3-HLys-(R)-4-amino-(R)-5-methyl-dihydro-furan-2-one]	5.01 ×10⁻⁶ cm/s	132 µg/mL (≈ 200 µM)	132 µg/mL (≈ 200 µM)	3.4	3.16 ×10⁻⁶ cm/s	2 ×10⁻⁶ cm/s	–	–	–	–
CC(=O)N[C@H](CC(=O)N(C)[C@H](Cc1c[nH]c2ccccc12)C(=O)N[C@@H](CCCCN)CC(=O)N[C@@H]1CC(=O)O[C@@H]1C)Cc1ccccc1 [Compound 40, Ac—(S)-β^3-HPhe-(R)—N-Me-Trp-(S)-β^3-HLys-(R)-4-amino-(R)-5-methyl-dihydro-furan-2-one]	0.1 ×10⁻⁶ cm/s	66.1 µg/mL (≈ 100 µM)	13.2 µg/mL (≈ 20 µM)	3.3	–	–	–	–	–	–
CCCCCN(C)C(=O)C[C@H](CCCCN)NC(=O)[C@@H](Cc1c[nH]c2ccccc12)NC(=O)C[C@H](Cc1ccccc1)NC(=O)CCC [Compound 41, Butyroyl-(S)-β^3-HPhe-(R)-Trp-(S)-β^3-HLys-methyl-pentyl-amide]	2.51 ×10⁻⁶ cm/s	132 µg/mL (≈ 200 µM)	132 µg/mL (≈ 200 µM)	3.6	1 ×10⁻⁶ cm/s	3.98 ×10⁻⁶ cm/s	highest solubility values	–	–	–
CCCCN(C)C(=O)C[C@H](CCCCN)NC(=O)[C@@H](Cc1c[nH]c2ccccc12)NC(=O)C[C@H](Cc1ccccc1)NC(=O)CCC [Compound 42, Butyroyl-(S)-β^3-HPhe-(R)-Trp-(S)-β^3-HLys-methyl-butyl-amide]	1 ×10⁻⁶ cm/s	64.7 µg/mL (≈ 100 µM)	129 µg/mL (≈ 200 µM)	3.7	5.01 ×10⁻⁶ cm/s	2 ×10⁻⁶ cm/s	highest solubility values	–	–	–
CCCCN(C)C(=O)C[C@H](CCCCN)NC(=O)[C@@H](Cc1c[nH]c2ccccc12)NC(=O)C[C@H](Cc1ccccc1)NC(=O)CC [Compound 43, Propionyl-(S)-β^3-HPhe-(R)-Trp-(S)-β^3-HLys-methyl-butyl-amide]	1 ×10⁻⁶ cm/s	127 µg/mL (≈ 200 µM)	126 µg/mL (≈ 200 µM)	3	1.26 ×10⁻⁶ cm/s	2 ×10⁻⁶ cm/s	highest solubility values	–	–	–
CCCCCN(C)C(=O)C[C@H](CCCCN)NC(=O)[C@@H](Cc1c[nH]c2ccccc12)NC(=O)C[C@H](Cc1ccccc1)NC(C)=O [Compound 47, Ace-(S)-β^3-HPhe-(R)-Trp-(S)-β^3-HLys-methyl-pentyl-amide]	3.98 ×10⁻⁶ cm/s	127 µg/mL (≈ 200 µM)	127 µg/mL (≈ 200 µM)	3	1 ×10⁻⁶ cm/s	1.58 ×10⁻⁶ cm/s	highest solubility values	–	–	–
CCCCCNC(=O)C[C@H](CCCCN)NC(=O)[C@@H](Cc1c[nH]c2ccccc12)NC(=O)C[C@H](Cc1ccccc1)NC(=O)CC [Compound 51, Propionyl-(S)-β^3-HPhe-(R)-Trp-(S)-β^3-HLys-pentyl-amide]	–	–	–	–	3.98 ×10⁻⁶ cm/s	–	medium to good	0.1266 g 1-1	0.0316 g 1-1	3.4
CCCCNC(=O)C[C@H](CCCCN)NC(=O)[C@@H](Cc1c[nH]c2ccccc12)NC(=O)C[C@H](Cc1ccccc1)NC(=O)CC [Compound 53, Propionyl-(S)-β^3-HPhe-(R)-Trp-(S)-β^3-HLys-butyl-amide]	7.94 ×10⁻⁶ cm/s	124 µg/mL (≈ 200 µM)	30.9 µg/mL (≈ 49.9 µM)	3.1	10 ×10⁻⁶ cm/s	5.01 ×10⁻⁶ cm/s	medium to good	–	–	–
CCCCNC(=O)C[C@H](CCCCN)NC(=O)[C@@H](Cc1c[nH]c2ccccc12)NC(=O)C[C@H](Cc1ccccc1)NC(=O)CCC [Compound 54, Butyroyl-(S)-β^3-HPhe-(R)-Trp-(S)-β^3-HLys-butyl-amide]	0.1 ×10⁻⁶ cm/s	127 µg/mL (≈ 200 µM)	12.7 µg/mL (≈ 20.1 µM)	3.5	–	–	–	–	–	–
CCCCCNC(=O)C[C@H](CCCCN)NC(=O)[C@@H](Cc1c[nH]c2ccccc12)NC(=O)C[C@H](Cc1ccccc1)NC(=O)CCC [Compound 55, Butyroyl-(S)-β^3-HPhe-(R)-Trp-(S)-β^3-HLys-pentyl-amide]	2.51 ×10⁻⁶ cm/s	64.7 µg/mL (≈ 100 µM)	12.9 µg/mL (≈ 19.9 µM)	3.7	–	0.1 ×10⁻⁶ cm/s	–	–	–	–
CCCC(=O)N[C@H](CC(=O)N[C@H](Cc1c[nH]c2ccccc12)C(=O)N[C@@H](CCCCN)CC(=O)NC1CCCC1)Cc1ccccc1 [Compound 56, Butyroyl-(S)-β^3-HPhe-(R)-Trp-(S)-β^3-HLys-cyclopentyl-amide]	0.1 ×10⁻⁶ cm/s	129 µg/mL (≈ 200 µM)	12.9 µg/mL (≈ 20 µM)	3	–	–	–	–	–	–
CCC(=O)N[C@H](CC(=O)N[C@H](Cc1c[nH]c2ccccc12)C(=O)N[C@@H](CCCCN)CC(=O)NC1CCCC1)Cc1ccccc1 [Compound 57, Propionyl-(S)-β^3-HPhe-(R)-Trp-(S)-β^3-HLys-cyclopentyl-amide]	1 ×10⁻⁶ cm/s	126 µg/mL (≈ 200 µM)	63.1 µg/mL (≈ 100 µM)	2.8	–	–	–	–	–	–
